Patent publication US20260317319A1, “NOVEL ERGOLINES AND METHODS OF TREATING MOOD DISORDERS” (Gilgamesh Pharma Inc., priority 2023, published 2026)
Where two headings read alike, the source gives them in different places.

Key:
5-HT2A receptor [1] = molecular target: T1, 5-HT2A receptor (Homo sapiens, UniProt P28223); assay: biochemical; type: binding; design: expressed in transfected cells; host or cells: HEK293, stably transfected; details: for Ki: [3H]ketanserin 1 nM, HEK293 stable cell line, 1 h, 25 °C
Summary of the method: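 Affinity was measured in radioligand binding experiments using [^3H]ketanserin as the labelled ligand, following methods adapted from published procedures.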

5-HT1A receptor = molecular target: T2, 5-HT1A receptor (Homo sapiens, UniProt P08908); assay: cell-based; details: agonist, Ca2+ flux; for Emax: CHO, CHO cells with Gα15, max dose, read-out: 5-HT1A % Act @ Max Dose; for EC50: CHO cells with Gα15
T2 construct: expressed in transfected cells; host or cells: CHO cells, stably transfected
T2 sequence (P08908 1-422): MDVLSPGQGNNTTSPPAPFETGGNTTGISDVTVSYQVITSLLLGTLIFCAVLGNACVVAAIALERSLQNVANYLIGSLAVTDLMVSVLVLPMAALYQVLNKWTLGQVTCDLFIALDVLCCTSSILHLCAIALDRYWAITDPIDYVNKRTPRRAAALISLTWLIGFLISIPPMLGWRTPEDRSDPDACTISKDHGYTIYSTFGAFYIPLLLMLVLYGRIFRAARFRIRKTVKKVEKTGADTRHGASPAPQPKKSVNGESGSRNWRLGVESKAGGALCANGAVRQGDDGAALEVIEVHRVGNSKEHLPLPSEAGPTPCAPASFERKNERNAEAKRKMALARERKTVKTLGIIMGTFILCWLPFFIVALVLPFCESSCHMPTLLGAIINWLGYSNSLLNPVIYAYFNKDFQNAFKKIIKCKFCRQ
Summary of the method: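 Receptor agonism was assessed as intracellular calcium mobilization in stably transfected cells, with CHO cells additionally carrying Gα15 for the 5-HT1A readout. Calcium was monitored with Fluo-4 Direct dye.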

5-HT2B receptor = molecular target: T3, 5-HT2B receptor (Homo sapiens, UniProt P41595); assay: cell-based; type: cell-based; details: Ca2+ flux; for Emax: HEK293, agonist, HEK293, max dose, read-out: 5-HT2B % Act @ Max Dose; for EC50: agonist, HEK293
T3 construct: expressed in transfected cells; host or cells: HEK293, stably transfected
Summary of the method: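 FLIPR Tetra fluorescence read-out of calcium flux after compound addition. Receptor-expressing stable lines were used (HEK293 for 2A/2B; CHO with Gα15 for 1A), dye-loaded with Fluo-4 Direct and 2.5 mM final probenecid, 50 min at 37 °C.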

5-HT2A receptor [2] = molecular target: T1, 5-HT2A receptor; assay: cell-based; type: cell-based; design: expressed in transfected cells; host or cells: HEK293, stably transfected; details: Ca2+ flux; for Emax: HEK293, agonist, HEK293, max dose, read-out: 5-HT2A % Act @ Max Dose; for EC50: agonist, HEK293
Summary of the method: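 Cells plated and incubated overnight at 37 °C, 5% CO2; Fluo-4 Direct dye with probenecid (final 2.5 mM) added, 50 min at 37 °C; test compounds transferred and Ca2+ signal recorded. HEK293 hosts for 5-HT2A/2B, CHO + Gα15 for 5-HT1A.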

5-HT1B receptor = molecular target: T4, 5-HT1B receptor (Homo sapiens, UniProt P28222); assay: cAMP accumulation functional assay at 5-HT1B; type: cell-based; details: agonist, cAMP accumulation; for Emax: max dose, read-out: 5-HT1B % Act @ Max Dose
T4 construct: expressed in transfected cells
Description: Functional Assay at 5-HT1B. Agonist activity at 5-HT1B was determined using a CAMP accumulation protocol at WuXi AppTec (Hong Kong) Limited according to their standard protocols. Briefly, stably transfected cells were plated in an OptiPlate-384 well plate, incubated at RT for 60 mins, and cAMP standard solution (800 nM, 10 μL) was added to the blank well. Then, 10 μL detection reagent was added to each well, the plate incubated for 60 mins at RT, and the plate read using En Vision.

in vitro [3] = type: in vitro ADME, rat; details: rat, microsomes, RLM (male Sprague-Dawley) 0.50 mg/mL, NADPH 1 mM, 1 μM compound, pH 7.4, 37° C., 60 min; for microsomal CLint: read-out: Intrinsic clearance (Clint); for half-life: read-out: half-life (t1/2)
Excerpt: RLM Stability Pooled RLM from male Sprague-Dawley rats (Xenotech R1000) were used.

in vitro [4] = type: in vitro ADME, human; details: human, microsomes, HLM 0.50 mg/mL, NADPH 1 mM, 1 μM compound, pH 7.4, 37° C., 60 min; for microsomal CLint: read-out: Intrinsic clearance (Clint); for half-life: read-out: half-life (t1/2)
in vitro [5] = type: in vitro ADME, mouse; details: mouse, microsomes, MLM (male CD-1) 0.50 mg/mL, NADPH 1 mM, 1 μM compound, pH 7.4, 37° C., 60 min; for microsomal CLint: read-out: Intrinsic clearance (Clint); for half-life: read-out: half-life (t1/2)
Excerpt: MLM Stability Pooled MLM from male CD-1 mice (BIOIVT M00501) were used.

5-HT2A receptor [6] = molecular target: T1, 5-HT2A receptor; assay: cell-based; type: cell-based; details: agonist, beta-arrestin recruitment; for EC50: PathHunter, read-out: 5-HT2A Arrestin EC50; for Emax: max dose, read-out: 5-HT2A Arrestin % Act @ Max Dose
Description: Arrestin Functional Assay at 5-HT2A. Recruitment of beta-arrestin was determined using a PathHunter assay at Eurofins DiscoverX (Fremont, CA) according to their standard protocols. PathHunter GPCR beta-arrestin assays take advantage of DiscoverX's proprietary Enzyme Fragment Complementation technology. The GPCR is fused in frame with a small enzyme donor fragment ProLink™ (PK) and co-expressed in cells stably expressing a fusion protein of beta-arrestin and the larger, N-terminal deletion mutant of beta-galactosidase. Activation of the GPCR (5-HT2A receptor in this case) stimulates binding of beta-arrestin to the PK-tagged GPCR and forces complementation of the two enzyme fragments, resulting in the formation of an active beta-galactosidase enzyme. This interaction leads to an increase in enzyme activity that can be measured using chemiluminescent PathHunter Detection Reagents. Briefly, PathHunter cells expressing 5-HT2A receptors were seeded in a volume of 20 μL into 384-well plates and incubated at 37° C. for the appropriate time prior to testing. […] Plates were then imaged on a microplate reader and the agonist activity was calculated using the following formula: % Activity=100%×(mean RLU of test sample-mean RLU of vehicle control)/(mean MAX control ligand-mean RLU of vehicle control), where RLU=relative light units.

5-HT2C receptor = molecular target: T5, 5-HT2C receptor (Homo sapiens, UniProt P28335); assay: cell-based; details: read-out: 5-HT2C % Act @ Max Dose
T5 sequence (P28335 33-458): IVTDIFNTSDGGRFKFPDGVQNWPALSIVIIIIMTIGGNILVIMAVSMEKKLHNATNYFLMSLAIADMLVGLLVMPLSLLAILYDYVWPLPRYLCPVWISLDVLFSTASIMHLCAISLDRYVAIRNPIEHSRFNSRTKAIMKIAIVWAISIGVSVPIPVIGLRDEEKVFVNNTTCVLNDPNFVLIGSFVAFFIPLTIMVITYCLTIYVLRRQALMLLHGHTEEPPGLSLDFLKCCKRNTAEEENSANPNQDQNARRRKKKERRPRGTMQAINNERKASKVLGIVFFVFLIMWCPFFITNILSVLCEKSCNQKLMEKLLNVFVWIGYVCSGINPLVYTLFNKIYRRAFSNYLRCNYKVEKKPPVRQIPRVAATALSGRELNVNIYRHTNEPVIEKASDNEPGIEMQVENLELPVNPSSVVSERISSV

T4 sequence (P28222 whole entry): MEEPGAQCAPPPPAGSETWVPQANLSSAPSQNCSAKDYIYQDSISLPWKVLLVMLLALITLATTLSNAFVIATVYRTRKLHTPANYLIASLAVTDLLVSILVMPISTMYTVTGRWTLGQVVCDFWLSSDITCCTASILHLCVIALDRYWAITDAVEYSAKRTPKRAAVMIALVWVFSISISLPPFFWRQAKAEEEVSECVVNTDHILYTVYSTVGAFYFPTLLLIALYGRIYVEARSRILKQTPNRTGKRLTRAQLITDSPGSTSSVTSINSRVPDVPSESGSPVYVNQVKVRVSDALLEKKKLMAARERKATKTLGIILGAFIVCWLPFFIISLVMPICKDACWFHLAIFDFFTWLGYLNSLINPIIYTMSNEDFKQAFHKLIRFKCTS
T3 sequence (P41595 whole entry): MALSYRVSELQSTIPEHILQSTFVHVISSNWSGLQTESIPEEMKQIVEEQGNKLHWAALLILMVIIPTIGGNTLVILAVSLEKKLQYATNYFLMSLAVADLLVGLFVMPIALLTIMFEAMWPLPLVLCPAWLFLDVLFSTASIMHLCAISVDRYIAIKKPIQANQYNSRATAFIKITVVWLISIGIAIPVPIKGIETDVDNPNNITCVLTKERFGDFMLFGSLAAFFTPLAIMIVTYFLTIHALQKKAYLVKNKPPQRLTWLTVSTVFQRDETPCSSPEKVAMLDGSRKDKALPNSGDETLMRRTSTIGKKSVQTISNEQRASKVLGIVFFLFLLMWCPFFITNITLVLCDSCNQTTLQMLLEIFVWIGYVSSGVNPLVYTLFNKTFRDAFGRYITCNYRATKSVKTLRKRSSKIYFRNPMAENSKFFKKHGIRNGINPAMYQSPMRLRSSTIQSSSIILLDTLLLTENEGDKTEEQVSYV
T1 sequence (P28223 whole entry): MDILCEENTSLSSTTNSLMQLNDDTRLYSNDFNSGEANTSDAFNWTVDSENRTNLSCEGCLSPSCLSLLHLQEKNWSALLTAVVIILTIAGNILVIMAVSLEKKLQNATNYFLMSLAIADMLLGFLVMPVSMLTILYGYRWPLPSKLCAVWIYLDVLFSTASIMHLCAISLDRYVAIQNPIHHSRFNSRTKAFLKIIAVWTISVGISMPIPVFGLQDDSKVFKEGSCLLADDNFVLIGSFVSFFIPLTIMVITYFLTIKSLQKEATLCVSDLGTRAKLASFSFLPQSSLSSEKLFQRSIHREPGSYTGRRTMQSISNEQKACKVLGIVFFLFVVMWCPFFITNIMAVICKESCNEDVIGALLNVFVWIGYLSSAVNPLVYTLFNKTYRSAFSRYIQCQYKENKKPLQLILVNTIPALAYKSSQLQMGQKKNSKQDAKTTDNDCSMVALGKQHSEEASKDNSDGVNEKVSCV

## CCN(CC)C(=O)[C@@H]1C=C2c3cccc4c3C(CN4)C[C@H]2N(C)C1 (mixture of isomers) [Compound 37, (6aR,9R)—N,N-diethyl-7-methyl-4,5,5a,6,6a,7,8,9-octahydroindolo[4,3-fg]quinoline-9-carboxamide]
5-HT2A receptor [1]; radioligand binding, 5-HT2A
  potency in receptor binding: reduced in potency compared to their dehydro counterparts
5-HT1A receptor
  Emax: 109%
5-HT2B receptor
  Emax: 24.1%
5-HT2A receptor [2]
  Emax: 76.4%
5-HT1B receptor
  Emax: 90.7%

## CCN(CC)C(=O)[C@@H]1C=C2c3cccc4[nH]cc(c34)C[C@H]2N(Cc2ccncc2)C1 [Compound 51, (6aR,9R)—N,N-diethyl-7-(pyridin-4-ylmethyl)-4,6,6a,7,8,9-hexahydroindolo[4,3-fg]quinoline-9-carboxamide]
In vitro [3]
  microsomal CLint: 73.6 µL/min/mg
  half-life: 18.8 min
In vitro [4]
  microsomal CLint: 34.3 µL/min/mg
  half-life: 40.4 min
5-HT2A receptor [1]
  Ki: 0.0156 µM
5-HT1A receptor
  Emax: 100%
  EC50: 1.46 µM
5-HT2B receptor
  Emax: 19.3%
  EC50: > 100 µM
In vitro [5]
  microsomal CLint: 480 µL/min/mg
  half-life: 2.9 min
5-HT2A receptor [2]
  Emax: 102%
  EC50: 0.0978 µM
5-HT1B receptor
  EC50: 0.19 µM
  Emax: 89.1%

## CCN(CC)C(=O)[C@@H]1C=C2c3cccc4[nH]cc(c34)C[C@H]2N(Cc2cccnc2)C1 [Compound 55, (6aR,9R)—N,N-diethyl-7-(pyridin-3-ylmethyl)-4,6,6a,7,8,9-hexahydroindolo[4,3-fg]quinoline-9-carboxamide]
In vitro [3]
  microsomal CLint: 103 µL/min/mg
  half-life: 13.4 min
In vitro [4]
  microsomal CLint: 56 µL/min/mg
  half-life: 24.8 min
5-HT2A receptor [1]
  Ki: 0.0397 µM
5-HT1A receptor
  Emax: 108%
  EC50: 4.09 µM
5-HT2B receptor
  Emax: 25.7%
  EC50: > 100 µM
In vitro [5]
  microsomal CLint: 543 µL/min/mg
  half-life: 2.6 min
5-HT2A receptor [2]
  Emax: 87.8%
  EC50: 0.158 µM
5-HT1B receptor
  EC50: 0.575 µM
  Emax: 82.5%

## CCN(CC)C(=O)[C@@H]1C=C2c3cccc4[nH]cc(c34)C[C@H]2N(Cc2ccc(F)c(OC)c2)C1 [Compound 60, (6aR,9R)—N,N-diethyl-7-(4-fluoro-3-methoxybenzyl)-4,6,6a,7,8,9-hexahydroindolo[4,3-fg]quinoline-9-carboxamide]
In vitro [3]
  microsomal CLint: 152 µL/min/mg
  half-life: 9.1 min
In vitro [4]
  microsomal CLint: 69.1 µL/min/mg
  half-life: 20.1 min
5-HT2A receptor [1]
  Ki: 0.00618 µM
5-HT1A receptor
  Emax: 53.1%
  EC50: 36.4 µM
5-HT2B receptor
  Emax: 23.8%
  EC50: > 100 µM
In vitro [5]
  microsomal CLint: 295 µL/min/mg
  half-life: 4.7 min
5-HT2A receptor [2]
  Emax: 102%
  EC50: 1.39 µM
5-HT1B receptor
  EC50: > 10 µM
  Emax: 31%

## CCNC(=O)[C@@H]1C=C2c3cccc4[nH]cc(c34)C[C@H]2N(Cc2cccc(OC)c2)C1 [Compound 63, (6aR,9R)—N-ethyl-7-(3-methoxybenzyl)-4,6,6a,7,8,9-hexahydroindolo[4,3-fg]quinoline-9-carboxamide]
In vitro [3]
  microsomal CLint: 645 µL/min/mg
  half-life: 2 min
In vitro [4]
  microsomal CLint: 442 µL/min/mg
  half-life: 3.1 min
5-HT2A receptor [1]
  Ki: 0.0113 µM
5-HT1A receptor
  Emax: 88.4%
  EC50: 6.11 µM
5-HT2B receptor
  Emax: -0.31%
  EC50: > 10 µM
In vitro [5]
  microsomal CLint: 1610 µL/min/mg
  half-life: 0.9 min
5-HT2A receptor [6]
  EC50: 0.0126 µM
  Emax: 64%
5-HT2A receptor [2]
  Emax: 91%
  EC50: 0.0969 µM
5-HT1B receptor
  EC50: > 10 µM
  Emax: 45.7%

## CCNC(=O)[C@@H]1C=C2c3cccc4[nH]cc(c34)C[C@H]2N(Cc2cccc(O)c2)C1 [Compound 64, (6aR,9R)—N-ethyl-7-(3-hydroxybenzyl)-4,6,6a,7,8,9-hexahydroindolo[4,3-fg]quinoline-9-carboxamide]
In vitro [3]
  microsomal CLint: 222 µL/min/mg
  half-life: 6.2 min
In vitro [4]
  microsomal CLint: 100 µL/min/mg
  half-life: 13.8 min
5-HT2A receptor [1]
  Ki: 0.012 µM
5-HT1A receptor
  Emax: 87%
  EC50: 0.424 µM
5-HT2B receptor
  Emax: 1.49%
  EC50: > 10 µM
In vitro [5]
  microsomal CLint: 312 µL/min/mg
  half-life: 4.4 min
5-HT2A receptor [6]
  EC50: 0.0232 µM
  Emax: 52%
5-HT2A receptor [2]
  Emax: 75.8%
  EC50: 0.0533 µM
5-HT1B receptor
  EC50: 4.52 µM
  Emax: 68.8%

## CC[C@@H](C)NC(=O)[C@H]1C=C2c3cccc4[nH]cc(c34)C[C@H]2N(C)C1 [Int8a]
5-HT1A receptor
  Emax: 104%
5-HT2B receptor
  Emax: 6.87%
5-HT2A receptor [6]
  Emax: 35.5%
5-HT2A receptor [2]
  Emax: 72.6%
5-HT2C receptor
  Emax: 93.7%

## CCC(CC)NC(=O)[C@H]1C=C2c3cccc4[nH]cc(c34)C[C@H]2N(C)C1 [Int14a]
5-HT1A receptor
  Emax: 70.3%
5-HT2B receptor
  Emax: 1.86%
5-HT2A receptor [6]
  Emax: 44.3%
5-HT2A receptor [2]
  Emax: 33%
5-HT2C receptor
  Emax: 119%

## CCC[C@@H](C)NC(=O)[C@H]1C=C2c3cccc4[nH]cc(c34)C[C@H]2N(C)C1 [Int17a]
5-HT1A receptor
  Emax: 88.5%
5-HT2B receptor
  Emax: 5.63%
5-HT2A receptor [6]
  Emax: 43.7%
5-HT2A receptor [2]
  Emax: 63.3%
5-HT2C receptor
  Emax: 112%
